The term Emax denotes the greatest response seen or fitted, relative to the assay's reference. The term EC50 denotes the midpoint of the concentration-response curve.

Emax and EC50 data for 26 molecules are collected here from patent US12459953B2, “TREM2 modulators” (Muna Therapeutics ApS, priority 2024, dated 2025).

The assay deals with T1, Human TREM2 (Homo sapiens, UniProt Q9NZC2).
T1 construct: expressed in transfected cells
Briefly: Human TREM2 activity by cellular phosphorylation of Syk (AlphaLISA SureFire Ultra p-SYK) in HEK293/DAP12+TREM2 stable cell line. The assay is classed as cell-based. Particulars: HEK293/DAP12+TREM2 cells; for Emax: maximal response relative to the maximal response of the reference agonist (8-(4-chloro-2-fluorophenyl)-2,3-dimethyl-6-[(2S)-2-(1-methyl-1H-pyrazol-4-yl)morpholin-4-yl]-3H,4H-[1,3]diazino[5,4-d]pyrimidin-4-one); for EC50: phospho-Syk AlphaScreen signal, 30 min incubation, concentration giving 50% of maximal response. The text has this: Human TREM2, in vitro Measurement of Triggering Receptor Expressed on Myeloid Cells 2 activity using cellular phosphorylation of Spleen Tyrosine Kinase (“Syk”) Assay
HEK-293 cells were co-transfected with separate plasmids encoding TREM2 and DAP12 to generate a stable cell line. After antibiotic selection, functional clone pool analysis and two successive limiting dilutions, the final clone
“HEK293/DAP12+TREM2” underwent a qPCR analysis and a pharmacological validation.
TREM2 signaling through DAP12 was monitored in the HEK293/DAP12+TREM2 stable cell line by measuring the phosphorylation levels of the Syk kinase using the commercially available AlphaLISA SureFire Ultra p-SYK (Tyr525/526) Assay Kit (PerkinElmer #ALSU-PSYK), based on the Perkin Elmer AlphaScreen/AlphaLISA technology.
Compounds are transferred to the test plate and tested in full dose response, 8 concentrations in quadruplicate data points. Compound serial dilutions were performed at Cybi-Felix instrument in 100% DMSO and the dose response curves were assembled in automated fashion in 384MPT at Hamilton STARIet instrument. All the stock solutions were prepared at 20 mM in 100% DMSO. For compounds testing, the starting concentration was 100 μM, dilution steps 1:6. A different concentration's range was adapted for compound's activity based on the preliminary results. Finally, a 384MPT reformatted for all compounds at 8 concentrations, quadruplicates, was used as “mother to child” process with a CyBi®-Well dispenser in which 1 μL of each compound was moved into a destination plate pre-filled with 65.6 μL of EMEM cell culture medium (BIOWHITTAKER_cat.BE12-125F), thus obtaining 3× concentrated compounds working solution. In columns 1-2 and 23-24 the control wells were added. In particular, dose response curves of a reference control agonist were included in column 1 and 24 as reference control agonist (Reference control agonists used include Human TREM2 polyclonal Antibody AF1828: R&D Systems; Human TREM2 monoclonal Antibody MAB1828: R&D Systems). The dose response curves were tested starting at 30 μM, dilution step 1:6. Both “source” compound plate and “destination” compound plate were barcoded and a relationship between the two plates was thus generated.
HEK293/DAP12+TREM2 cells were cultured in EMEM medium supplemented with IX Penicillin/Streptomycin (BIOWHITTAKER_cat.DE17-602E), ULTRAGLUTAMINE I 200 mM, 10% Fetal Bovine Serum plus antibiotics referred to as “HEK293 Culture Medium”. The day before the experiment, cells were detached by gentle wash with DPBS, followed by 5 min incubation at 37° C. with Trypsin solution. Cells were then diluted in HEK293 Culture Medium without antibiotics, counted and seeded into 384-well poly-D-Lysine coated microplates black/clear bottom (GREINER 781946) at a density of 10,000 cells/well in 25 μL/well by the use of a MATRIX WellMate dispenser. Plates were placed into a humidified cell culture incubator at 37° C. with 5% CO2 until the experimental day. 20-24 hours after seeding mature medium was removed and replaced with 10 μL/well of EMEM cell medium supplemented with 0.1% Pluronic F-68 non-ionic surfactant (Thermofisher, 24040032), referred to as “Assay Buffer”, using the CyBi®-Well instrument. Then 5 μL/well of Assay Buffer containing 3× concentrated test compounds or the reference control agonist (in 0.5% final DMSO concentration) were added to the cells with the CyBi®-Well instrument. Cell plates were incubated for 30 min into a humidified cell culture incubator at 37° C. with 5% CO2,then the medium was removed by manually discard. 20 μL/well of lysis buffer were dispensed using the CyBi®-Well instrument and plates were incubated for 10 min at room temperature on a plate shaker (350 rpm). Then, 10 μL/well of lysate were transferred to the Alpha plates. The CyBi®-Well instrument was used to dispense 5 μL/well of AlphaLISA Acceptor Bead Solution in IX Immunoassay buffer (Perkin Elmer ALOOOF). […]
(In general: In Alpha technology, singlet oxygen from a donor bead excites a nearby acceptor bead.)

T1 sequence (Q9NZC2 19-230): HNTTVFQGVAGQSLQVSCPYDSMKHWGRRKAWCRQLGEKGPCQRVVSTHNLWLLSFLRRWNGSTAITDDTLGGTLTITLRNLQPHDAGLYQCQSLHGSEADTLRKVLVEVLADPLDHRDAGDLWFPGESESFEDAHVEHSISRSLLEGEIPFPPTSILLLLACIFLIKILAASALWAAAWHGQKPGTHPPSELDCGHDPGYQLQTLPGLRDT
T1 sequence (O43914 22-113 partner): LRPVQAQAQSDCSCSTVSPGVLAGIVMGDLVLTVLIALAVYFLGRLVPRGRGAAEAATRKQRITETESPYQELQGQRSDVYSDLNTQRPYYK

`C[C@@H]1CN(c2nc(-c3ccc(F)cc3F)c3ncn(C)c(=O)c3n2)C[C@H](c2cnn(C3CC3)c2)O1` yielded an Emax of 75 to 110% and an EC50 of 10 to 100 nM.

Regarding `Cc1nc2c(-c3ccc(F)cc3F)nc(N3C[C@@H](C)O[C@@H](c4cnn(C5CC5)c4)C3)nc2c(=O)n1C`, the maximal effect (Emax) lay within 75 to 110% and the EC50 lay within 1 to 10 nM.

Take `COc1ccc(-c2nc(N3C[C@@H](C)O[C@@H](c4cnn(C5CC5)c4)C3)nc3c(=O)n(C)c(C(F)(F)F)nc23)c(F)c1` (single isomer, unassigned) [Example 4]: the Emax was 75 to 110% and the EC50 was < 1 nM.

With `C[C@@H]1CN(c2nc(-c3ccc(C#N)cc3F)c3nc(C(F)(F)F)n(C)c(=O)c3n2)C[C@H](c2cnn(C3CC3)c2)O1` (single isomer, unassigned) [Example 5A], the Emax was > 110% and the 50% effective concentration (EC50) was < 1 nM.

Turning to `C[C@H]1CN(c2nc(-c3ccc(C#N)cc3F)c3nc(C(F)(F)F)n(C)c(=O)c3n2)C[C@@H](c2cnn(C3CC3)c2)O1` (single isomer, unassigned) [Example 5B], the maximal response (Emax) was > 110% and the EC50 fell in the range of 1 to 10 nM.

For `C[C@@H]1CN(c2nc(-c3ccc(C#N)cc3F)c3nc(C(F)(F)F)n(C)c(=O)c3n2)C[C@H](c2cnn(C)c2)O1` (single isomer, unassigned) [Example 6A], the maximal response (Emax) lay within 75 to 110% and the 50% effective concentration (EC50) lay in the range of 1 to 10 nM.

`C[C@H]1CN(c2nc(-c3ccc(C#N)cc3F)c3nc(C(F)(F)F)n(C)c(=O)c3n2)C[C@@H](c2cnn(C)c2)O1` (single isomer, unassigned) [Example 6B] came in with an Emax of 75 to 110% and an EC50 of 1 to 10 nM.

With `Cn1cc([C@H]2CN(c3nc(-c4ccc(C#N)cc4F)c4nc(C(F)(F)F)n(C)c(=O)c4n3)CC(F)(F)O2)cn1` (single isomer, unassigned) [Example 7A], the maximal response (Emax) was > 110% and the EC50 was < 1 nM.

`Cn1cc([C@@H]2CN(c3nc(-c4ccc(C#N)cc4F)c4nc(C(F)(F)F)n(C)c(=O)c4n3)CC(F)(F)O2)cn1` (single isomer, unassigned) [Example 7B] displayed an Emax of 75 to 110% and an EC50 of 1 to 10 nM.

The molecule `COc1cc([C@@H]2CN(c3nc(-c4ccc(C#N)cc4F)c4nc(C(F)(F)F)n(C)c(=O)c4n3)CCO2)ccn1` (single isomer, unassigned) [Example 8A] registered a maximal effect (Emax) of 75 to 110% and an EC50 of 10 to 100 nM.

For the molecule `COc1cc([C@H]2CN(c3nc(-c4ccc(C#N)cc4F)c4nc(C(F)(F)F)n(C)c(=O)c4n3)CCO2)ccn1` (single isomer, unassigned) [Example 8B], the Emax was 75 to 110% and the EC50 is < 1 nM.

As for `COc1cc([C@@H]2CN(c3nc(-c4ccc(C#N)cc4F)c4nc(C(F)(F)F)n(C)c(=O)c4n3)C[C@H](C)O2)ccn1` (single isomer, unassigned) [Example 9A], the Emax was 75 to 110% and the concentration for a half-maximal effect (EC50) was < 1 nM.

For `COc1cc([C@H]2CN(c3nc(-c4ccc(C#N)cc4F)c4nc(C(F)(F)F)n(C)c(=O)c4n3)C[C@@H](C)O2)ccn1` (single isomer, unassigned) [Example 9B], the Emax lay within 75 to 110% and the 50% effective concentration (EC50) was < 1 nM.

Consider `C[C@@H]1CN(c2nc(-c3ccc(C#N)cc3)c3nc(C(F)(F)F)n(C)c(=O)c3n2)C[C@H](c2cnn(C)c2)O1` (single isomer, unassigned) [Example 10A], for which the Emax was 75 to 110% and the EC50 is < 1 nM.

Turning to `C[C@H]1CN(c2nc(-c3ccc(C#N)cc3)c3nc(C(F)(F)F)n(C)c(=O)c3n2)C[C@@H](c2cnn(C)c2)O1` (single isomer, unassigned) [Example 10B], the Emax fell in the range of 75 to 110% and the EC50 was 1 to 10 nM.

On to `C[C@@H]1CN(c2nc(-c3ccc(C#N)cc3)c3nc(C(F)(F)F)n(C)c(=O)c3n2)C[C@H](c2cnn(C3CC3)c2)O1` (single isomer, unassigned) [Example 11A], for which the Emax lay in the range of 75 to 110% and the EC50 is < 1 nM.

`C[C@H]1CN(c2nc(-c3ccc(C#N)cc3)c3nc(C(F)(F)F)n(C)c(=O)c3n2)C[C@@H](c2cnn(C3CC3)c2)O1` (single isomer, unassigned) [Example 11B] displayed an Emax of 75 to 110% and an EC50 of 1 to 10 nM.

With `COc1cc([C@H]2CN(c3nc(-c4ccc(F)cc4F)c4nc(C(F)(F)F)n(C)c(=O)c4n3)CCO2)ccn1` (single isomer, unassigned) [Example 12A], the Emax was in the range of 75 to 110% and the concentration giving a half-maximal response (EC50) was < 1 nM.

Regarding `COc1cc([C@@H]2CN(c3nc(-c4ccc(F)cc4F)c4nc(C(F)(F)F)n(C)c(=O)c4n3)CCO2)ccn1` (single isomer, unassigned) [Example 12B], the Emax fell in the range of 75 to 110% and the concentration for a half-maximal effect (EC50) lay in the range of 10 to 100 nM.

Consider `C[C@@H]1CN(c2cc3c(=O)n(C)c(C(F)(F)F)nc3c(-c3ccc(C#N)cc3F)n2)C[C@H](c2cnn(C3CC3)c2)O1` (single isomer, unassigned) [Example 13A], for which the Emax lay in the range of 75 to 110% and the EC50 is < 1 nM.

In the case of `C[C@H]1CN(c2cc3c(=O)n(C)c(C(F)(F)F)nc3c(-c3ccc(C#N)cc3F)n2)C[C@@H](c2cnn(C3CC3)c2)O1` (single isomer, unassigned) [Example 13B], the Emax lay within 75 to 110% and the concentration giving a half-maximal response (EC50) was 1 to 10 nM.

In turn, `Cn1cc([C@H]2CN(c3cc4c(=O)n(C)c(C(F)(F)F)nc4c(-c4ccc(C#N)cc4F)n3)CC(F)(F)O2)cn1` (single isomer, unassigned) [Example 14A] gave an Emax of 75 to 110% and an EC50 of 1 to 10 nM.

In turn, `Cn1cc([C@@H]2CN(c3cc4c(=O)n(C)c(C(F)(F)F)nc4c(-c4ccc(C#N)cc4F)n3)CC(F)(F)O2)cn1` (single isomer, unassigned) [Example 14B] displayed a maximum response (Emax) of 75 to 110% and an EC50 of 10 to 100 nM.

As to `Cn1cc([C@H]2CN(c3nc(-c4ccc(C#N)cc4F)c4nc(C(F)(F)F)n(C)c(=O)c4n3)CCO2)cn1` [Example 1, (S)-3-fluoro-4-(7-methyl-2-(2-(1-methyl-1H-pyrazol-4-yl)morpholino)-8-oxo-6-(trifluoromethyl)-7,8-dihydropyrimido[5,4-d]pyrimidin-4-yl)benzonitrile], the Emax fell in the range of 75 to 110% and the EC50 was < 1 nM.

As to `COc1ccc(-c2nc(N3CCO[C@@H](c4cnn(C)c4)C3)nc3c(=O)n(C)c(C(F)(F)F)nc23)c(F)c1` [Example 2, (S)-8-(2-fluoro-4-methoxyphenyl)-3-methyl-6-(2-(1-methyl-1H-pyrazol-4-yl)morpholino)-2-(trifluoromethyl)pyrimido[5,4-d]pyrimidin-4(3H)-one], the Emax is 75 to 110% and the concentration for a half-maximal effect (EC50) was in the range of 1 to 10 nM.

Take `Cn1cc([C@H]2CN(c3nc(-c4ccc(C#N)cc4)c4nc(C(F)(F)F)n(C)c(=O)c4n3)CCO2)cn1` [Example 3, (S)-4-(7-methyl-2-(2-(1-methyl-1H-pyrazol-4-yl)morpholino)-8-oxo-6-(trifluoromethyl)-7,8-dihydropyrimido[5,4-d]pyrimidin-4-yl)benzonitrile]: the maximal response (Emax) was < 75% and the EC50 was in the range of 1 to 10 nM.
